Columns and labels:
Format in all cases: physicochemical
[1] = Physical stability evaluation under stress conditions
Description: In order to evaluate physical stability, samples were packaged in the form of ((LPDE+N2)+silica gel 1 g+LDPE)+Al-Bag, and stored under stress conditions (60° C.±2° C./80% RH±5%) for 2/4 weeks before evaluation.
In table 2, initial is a result measured after preparation of salts, and S2W and S4W are results measured after two and four weeks while being exposed to stress conditions, respectively.

[2] = Measurement of water solubility; details: saturated solution shaken at room temperature for 24 hours
Description: A liquid phase was taken out of the solution and filtered using a 0.22 μm PVDF filter. The filtered liquid phase was diluted 10-fold for LC analysis.
LC analysis was performed by the following method.

[3] = Photostability evaluation
Description: Samples were packaged in LPDE bag, and stored under visible (1.2M Lux-h), UV (200 W-h/m2) and UV+visible conditions, respectively, and then evaluated.

[4] = Hygroscopicity evaluation; details: for Individual related material: in %
Description: Samples were placed in a glass desiccator in which relative humidity was adjusted to 33%, 53%, 75%, and 93%, and then stored for two and four weeks to be evaluated.

## C[C@@H]1CN(C(=O)CC#N)CC=C1c1cc(NC(=O)C2CC2)nc2[nH]ccc12 [Example 4, (S)—N-(4-(1-(2-cyanoacetyl)-3-methyl-1,2,3,6-tetrahydropyridin-4-yl)-1H-pyrrolo[2,3-b]pyridin-6-yl)cyclopropanecarboxamide]
[1]; Initial
  C.I quantitative: 40.3%
  Content (anhydride, as anhydride): 100.4%
  Moisture: 0.67%
  Purity: Individual related material: 0.13%
  Purity: Total related material: 1.13%
[1]; S2W: 2 weeks at 60° C./80% RH
  C.I quantitative: 40.3%
  Content (anhydride, as anhydride): 101.9%
  Purity: Individual related material: 0.23%
  Purity: Total related material: 1.32%
[1]; S4W: 4 weeks at 60° C./80% RH
  C.I quantitative: 40.6%
  Content (anhydride, as anhydride): 101.9%
  Moisture: 0.98%
  Purity: Individual related material: 0.30%
  Purity: Total related material: 1.31%
[2]
  Water solubility: 1900 µg/mL
[3]; Initial
  Individual related material: 0.13%
  Total related material: 1.13%
[3]; Solid, Control
  Individual related material: 0.14%
  Total related material: 0.14%
[3]; Solid, UV (200 W-h/m2)
  Individual related material: 0.13%
  Total related material: 0.27%
[3]; Solid, UV + Vis
  Individual related material: 0.13%
  Total related material: 0.72%
[3]; Solid, UV + Vis Control
  Individual related material: 0.14%
  Total related material: 0.14%
[3]; Solid, Vis (1.2M Lux-h)
  Individual related material: 0.13%
  Total related material: 0.68%
[4]; Initial
  Total related material: 1.13%
  Water: 0.67%
  Individual related material: 0.13
[4]; relative humidity 33%, 2 W
  Total related material: 1.1%
  Water: 0.56%
  Individual related material: 0.14
[4]; relative humidity 33%, 4 W
  Total related material: 1.07%
  Water: 0.54%
  Individual related material: 0.14
[4]; relative humidity 53%, 2 W
  Total related material: 1.18%
  Water: 0.80%
  Individual related material: 0.15
[4]; relative humidity 53%, 4 W
  Total related material: 1.04%
  Water: 0.65%
  Individual related material: 0.15
[4]; relative humidity 75%, 2 W
  Total related material: 1.18%
  Water: 1.44%
  Individual related material: 0.15
[4]; relative humidity 75%, 4 W
  Total related material: 1.18%
  Water: 1.02%
  Individual related material: 0.16
[4]; relative humidity 93%, 2 W
  Total related material: 1.17%
  Water: 2.03%
  Individual related material: 0.16
[4]; relative humidity 93%, 4 W
  Total related material: 1.15%
  Water: 1.72%
  Individual related material: 0.17
